Experiment in all cases: Test B pre-/postemergence plant response
Holding throughout (format): in vivo

The subject of experiment [1] is barnyardgrass (Echinochloa crus-galli). Conditions: for pest or weed control at 1000 g/ha / Plant response rating, Barnyardgrass: 1000 g ai/ha; for pest or weed control at 125 g/ha: 125 g ai/ha. The source says: (§1) Seeds of plant species selected from bamyardgrass (Echinochloa crus-galli), kochia (Kochia scoparia), ragweed (common ragweed, Ambrosia elatior), Italian ryegrass (Lolium multiflorum), large (Lg) crabgrass (Digitaria sanguinalis), giant foxtail (Setaria faberii), momingglory (Ipomoea spp.), pigweed (Amaranthus retroflexus), velvetleaf (Abutilon theophrasti), wheat (Triticum aestivum), and corn (Zea mays) were planted into a blend of loam soil and sand and treated preemergence with a directed soil spray using test chemicals formulated in a non-phytotoxic solvent mixture which included a surfactant. At the same time, plants selected from these crop and weed species and also blackgrass (Alopecurus myosuroides), and galium (catchweed bedstraw, Galium aparine) were planted in pots containing the same blend of loam soil and sand and treated with postemergence applications of test chemicals formulated in the same manner. Plants ranged in height from 2 to 10 cm and were in the one- to two-leaf stage for the postemergence treatment. Treated plants and untreated controls were maintained in a greenhouse for approximately 10 days, after which time all treated plants were compared to untreated controls and visually evaluated for injury. Plant response ratings, summarized in Table B, are based on a 0 to 100 scale where 0 is no effect and 100 is complete control. A dash (-) response means no test result.

In experiment [2] the test system is corn (Zea mays). To be noted: for Corn plant response rating (crop injury, 0 = no effect, 100 = complete kill) at 1000 g/ha / Plant response rating, Corn: 1000 g ai/ha; for Corn plant response rating (crop injury, 0 = no effect, 100 = complete kill) at 125 g/ha: 125 g ai/ha.
Description: as §1

In experiment [3] the test system is giant foxtail (Setaria faberii). To be noted: for pest or weed control at 1000 g/ha / Plant response rating, Foxtail, Giant: 1000 g ai/ha; for pest or weed control at 125 g/ha: 125 g ai/ha.
Description: as §1

Experiment [4] deals with large (Lg) crabgrass (Digitaria sanguinalis). Conditions: for pest or weed control at 1000 g/ha / Plant response rating, Crabgrass, Large: 1000 g ai/ha; for pest or weed control at 125 g/ha: 125 g ai/ha.
Description: as §1

In experiment [5] the test system is morningglory (Ipomoea spp.). To be noted: for pest or weed control at 1000 g/ha / Plant response rating, Morningglory: 1000 g ai/ha; for pest or weed control at 125 g/ha: 125 g ai/ha.
Description: as §1

Experiment [6] has as its system pigweed (Amaranthus retroflexus). Conditions: for pest or weed control at 1000 g/ha / Plant response rating, Pigweed: 1000 g ai/ha; for pest or weed control at 125 g/ha: 125 g ai/ha.
Description: as §1

Experiment [7] concerns velvetleaf (Abutilon theophrasti). To be noted: for pest or weed control at 125 g/ha: 125 g ai/ha.
Description: as §1

Experiment [8] deals with wheat (Triticum aestivum). To be noted: for plant injury at 1000 g/ha / Plant response rating, Wheat: 1000 g ai/ha, 0 to 100 scale (0 no effect, 100 complete control); for plant injury at 125 g/ha: 125 g ai/ha.
Description: as §1

Where [9] appears, read: Preemergence, 31 g ai/ha, 0 to 100 scale (0 no effect, 100 complete control).
Where [10] appears, read: Postemergence, 0 to 100 scale (0 no effect, 100 complete control).
[11] abbreviates: Preemergence, 0 to 100 scale (0 no effect, 100 complete control).

Structures are written as SMILES. Where two headings read alike, the source gives them in different places.

In the case of `O=Cc1cc(-c2ccccc2Oc2ncc(Cl)cn2)no1` [Compound 33, 3-[2-[(5-chloro-2-pyrimidinyl)oxy]phenyl]-5-isoxazolecarboxaldehyde], the pest or weed control at 1000 g/ha is 0% in experiment [1] (Echinochloa crus-galli, post-emergence, 240 h, Postemergence, 0 to 100 scale (0 no effect, 100 complete control), read-out: Plant response rating, Barnyardgrass); 0% in experiment [1] (Echinochloa crus-galli, pre-emergence, 240 h, Preemergence, 0 to 100 scale (0 no effect, 100 complete control), read-out: Plant response rating, Barnyardgrass); 10% in experiment [3] (Setaria faberi, post-emergence, 240 h, Postemergence, 0 to 100 scale (0 no effect, 100 complete control), read-out: Plant response rating, Foxtail, Giant); 10% in experiment [3] (Setaria faberi, pre-emergence, 240 h, Preemergence, 0 to 100 scale (0 no effect, 100 complete control), read-out: Plant response rating, Foxtail, Giant); 10% in experiment [4] (Digitaria sanguinalis, post-emergence, 240 h, Postemergence, 0 to 100 scale (0 no effect, 100 complete control), read-out: Plant response rating, Crabgrass, Large); 80% in experiment [4] (Digitaria sanguinalis, pre-emergence, 240 h, Preemergence, 0 to 100 scale (0 no effect, 100 complete control), read-out: Plant response rating, Crabgrass, Large). The pest or weed control at 1000 g/ha in experiment [5] (Ipomoea, post-emergence, 240 h, Postemergence, 0 to 100 scale (0 no effect, 100 complete control), read-out: Plant response rating, Morningglory) was determined as 10%; in experiment [5] (Ipomoea, pre-emergence, 240 h, Preemergence, 0 to 100 scale (0 no effect, 100 complete control), read-out: Plant response rating, Morningglory), 0%; in experiment [6] (Amaranthus retroflexus, post-emergence, 240 h, Postemergence, 0 to 100 scale (0 no effect, 100 complete control), read-out: Plant response rating, Pigweed), 10%; in experiment [6] (Amaranthus retroflexus, pre-emergence, 240 h, Preemergence, 0 to 100 scale (0 no effect, 100 complete control), read-out: Plant response rating, Pigweed) it was 40%; in experiment [7] (Abutilon theophrasti, post-emergence, 240 h, Postemergence, 1000 g ai/ha, 0 to 100 scale (0 no effect, 100 complete control), read-out: Plant response rating, Velvetleaf) it was 0%; in experiment [7] (Abutilon theophrasti, pre-emergence, 240 h, Preemergence, 1000 g ai/ha, 0 to 100 scale (0 no effect, 100 complete control), read-out: Plant response rating, Velvetleaf) it was 0%. In addition, the Corn plant response rating (crop injury, 0 = no effect, 100 = complete kill) at 1000 g/ha amounted to 0% in experiment [2] (Zea mays, post-emergence, 240 h, Postemergence, 0 to 100 scale (0 no effect, 100 complete control)) and 0% in experiment [2] (Zea mays, pre-emergence, 240 h, Preemergence, 0 to 100 scale (0 no effect, 100 complete control)). The plant injury at 1000 g/ha in experiment [8] (Triticum aestivum, post-emergence, 240 h, Postemergence, read-out: Plant response rating, Wheat) was determined as 0%; in experiment [8] (Triticum aestivum, pre-emergence, 240 h, Preemergence, read-out: Plant response rating, Wheat), 0%.
On to `FC(F)(F)c1cnc(Oc2ccccc2-c2cnc(Br)s2)nc1` [Compound 15, 2-[2-(2-bromo-5-thiazolyl)phenoxy]-5-(trifluoromethyl)pyrimidine], for which the pest or weed control at 31 g/ha in experiment [1] (Echinochloa crus-galli, post-emergence, 240 h, 31 g ai/ha, Postemergence, 0 to 100 scale, 0 no effect, 100 complete control, read-out: Plant response rating, Barnyardgrass) is 0%; in experiment [3] (Setaria faberi, post-emergence, 240 h, 31 g ai/ha, Postemergence, 0 to 100 scale, 0 no effect, 100 complete control, read-out: Plant response rating, Foxtail, Giant), 0%; in experiment [4] (Digitaria sanguinalis, post-emergence, 240 h, 31 g ai/ha, Postemergence, 0 to 100 scale, 0 no effect, 100 complete control, read-out: Plant response rating, Crabgrass, Large) it was 0%; in experiment [5] (Ipomoea, post-emergence, 240 h, 31 g ai/ha, Postemergence, 0 to 100 scale, 0 no effect, 100 complete control, read-out: Plant response rating, Morningglory), 0%; in experiment [6] (Amaranthus retroflexus, post-emergence, 240 h, 31 g ai/ha, Postemergence, 0 to 100 scale, 0 no effect, 100 complete control, read-out: Plant response rating, Pigweed), 60%; in experiment [7] (Abutilon theophrasti, post-emergence, 240 h, 31 g ai/ha, Postemergence, 0 to 100 scale, 0 no effect, 100 complete control, read-out: Plant response rating, Velvetleaf) it was 0%. In addition, the pest or weed control at 125 g/ha came to 0% in experiment [1] (Echinochloa crus-galli, post-emergence, 240 h, postemergence, 0 to 100 scale, 0 no effect, 100 complete control, read-out: Plant response rating, Barnyardgrass); 0% in experiment [1] (Echinochloa crus-galli, pre-emergence, 240 h, Preemergence, 0 to 100 scale where 0 is no effect and 100 is complete control, read-out: Plant response rating, Barnyardgrass); 0% in experiment [3] (Setaria faberi, post-emergence, 240 h, postemergence, 0 to 100 scale, 0 no effect, 100 complete control, read-out: Plant response rating, Foxtail, Giant); 0% in experiment [3] (Setaria faberi, pre-emergence, 240 h, Preemergence, 0 to 100 scale where 0 is no effect and 100 is complete control, read-out: Plant response rating, Foxtail, Giant); 10% in experiment [4] (Digitaria sanguinalis, post-emergence, 240 h, postemergence, 0 to 100 scale, 0 no effect, 100 complete control, read-out: Plant response rating, Crabgrass, Large); 0% in experiment [4] (Digitaria sanguinalis, pre-emergence, 240 h, Preemergence, 0 to 100 scale where 0 is no effect and 100 is complete control, read-out: Plant response rating, Crabgrass, Large). For the same compound, the pest or weed control at 125 g/ha in experiment [5] (Ipomoea, post-emergence, 240 h, postemergence, 0 to 100 scale, 0 no effect, 100 complete control, read-out: Plant response rating, Morningglory) stood at 10%; in experiment [5] (Ipomoea, pre-emergence, 240 h, Preemergence, 0 to 100 scale where 0 is no effect and 100 is complete control, read-out: Plant response rating, Morningglory), 0%; in experiment [6] (Amaranthus retroflexus, post-emergence, 240 h, postemergence, 0 to 100 scale, 0 no effect, 100 complete control, read-out: Plant response rating, Pigweed) it was 70%; in experiment [6] (Amaranthus retroflexus, pre-emergence, 240 h, Preemergence, 0 to 100 scale where 0 is no effect and 100 is complete control, read-out: Plant response rating, Pigweed), 0%; in experiment [7] (Abutilon theophrasti, post-emergence, 240 h, postemergence, 0 to 100 scale, 0 no effect, 100 complete control, read-out: Plant response rating, Velvetleaf), 0%; in experiment [7] (Abutilon theophrasti, pre-emergence, 240 h, Preemergence, 0 to 100 scale where 0 is no effect and 100 is complete control, read-out: Plant response rating, Velvetleaf) it was 0%. The “Barnyardgrass plant response rating” value in experiment [1] (setting [9]) was 0. Further, in experiment [2] (setting [9]), the “Corn plant response rating” value is recorded as 0. Besides, in experiment [2] (Zea mays, post-emergence, 240 h, 31 g ai/ha, Postemergence, 0 to 100 scale, 0 no effect, 100 complete control), the Corn plant response rating (crop injury, 0 = no effect, 100 = complete kill) at 31 g/ha came to 0%. For the same compound, the Corn plant response rating (crop injury, 0 = no effect, 100 = complete kill) at 125 g/ha in experiment [2] (Zea mays, post-emergence, 240 h, postemergence, 0 to 100 scale, 0 no effect, 100 complete control) worked out at 0%; in experiment [2] (Zea mays, pre-emergence, 240 h, Preemergence, 0 to 100 scale where 0 is no effect and 100 is complete control), 0%. Moreover, the “Foxtail, Giant plant response rating” value in experiment [3] (setting [9]) was 0. Moreover, the “Crabgrass, Large plant response rating” value in experiment [4] (setting [9]) is 0. Further, in experiment [5] (setting [9]), the “Morningglory plant response rating” value was determined as 0. Besides, the “Pigweed plant response rating” value in experiment [6] (setting [9]) is 0. Further, the “Velvetleaf plant response rating” value in experiment [7] (setting [9]) is reported as 0. Further, the plant injury at 31 g/ha in experiment [8] (Triticum aestivum, post-emergence, 240 h, 31 g ai/ha, Postemergence, 0 to 100 scale, 0 no effect, 100 complete control, read-out: Plant response rating, Wheat) was found to be 0%. Also, the plant injury at 125 g/ha in experiment [8] (Triticum aestivum, post-emergence, 240 h, postemergence, 0 to 100 scale, 0 no effect, 100 complete control, read-out: Plant response rating, Wheat) worked out at 0%; in experiment [8] (Triticum aestivum, pre-emergence, 240 h, Preemergence, 0 to 100 scale where 0 is no effect and 100 is complete control, read-out: Plant response rating, Wheat), 0%.
For the compound `N#CCc1cc(-c2ccccc2Oc2ncc(Cl)cn2)no1` [Compound 36], the “Plant response rating, Barnyardgrass” value came to 90 in experiment [1] (setting [10]) and 30 in experiment [1] (setting [11]). The entries for the “Plant response rating, Corn” value in experiment [2] (setting [10]) and in experiment [2] (setting [11]) were 50 and 0, respectively. Moreover, the “Plant response rating, Foxtail, Giant” value in experiment [3] (setting [10]) and in experiment [3] (setting [11]) was 90 each time. The “Plant response rating, Crabgrass, Large” value in experiment [4] (setting [10]) is 80; in experiment [4] (setting [11]), 100. Also, the entries for the “Plant response rating, Morningglory” value in experiment [5] (setting [10]) and in experiment [5] (setting [11]) were 20 and 10, respectively. In addition, the figures for the “Plant response rating, Pigweed” value in experiment [6] (setting [10]) and in experiment [6] (setting [11]) were 90 and 100, respectively. In experiment [7] (Postemergence, 1000 g ai/ha, 0 to 100 scale (0 no effect, 100 complete control)), the “Plant response rating, Velvetleaf” value is given as 100. Moreover, the “Plant response rating, Wheat” value is 50 in experiment [8] (Postemergence) and 0 in experiment [8] (Preemergence).

Source of the values: US10131652B2, “Pyrimidinyloxy benzene derivatives as herbicides” (E. I. DU PONT DE NEMOURS AND COMPANY, priority 2014, dated 2018).
